In brackets after ≈: the same amount, converted by molar mass. Where two headings read alike, the source gives them in different places.
What was measured:
[1] = tested on: chloroquine-sensitive (CQ-S) Plasmodium falciparum strain D10; experiment: in vitro antimalarial activity on chloroquine-sensitive strain D10; format: cell-based
[2] = tested on: chloroquine-resistant (CQ-R) Plasmodium falciparum strain W2; experiment: in vitro antimalarial activity on chloroquine-resistant strain W2; format: cell-based
[3] = P. falciparum strain D10, chloroquine-sensitive, n = 4 ± SD, read-out: D10 (CQ-S) IC50
[4] = P. falciparum strain W2, chloroquine-resistant, n = 4 ± SD, read-out: W2 (CQ-R) IC50

SMILES	IC50 [1, 3] [µg/mL]	IC50 [2, 4] [µg/mL]	IC50 ([1]; D10, read-out: D10 (CQ-S) IC50) [µg/mL]	IC50 ([2]; W2, read-out: W2 (CQ-R) IC50) [µg/mL]
Oc1cc(Nc2ccnc3cc(Cl)ccc23)ccc1CNCCC12CCCN1CCC2 [Example 4]	0.0172 ± 0.0019 (≈ 0.0394 µM)	< 0.08		
Clc1ccc2c(NCCC34CCCN3CCC4)ccnc2c1 [Example 1, N-(7-chloro-quinolin-4-yl)-2-(tetrahydropyrrolizin-7a-yl)-ethylamine]	0.0017 ± 0.0014 (≈ 0.00538 µM)	0.0173 ± 0.0024 (≈ 0.0548 µM)		
Clc1ccc2c(NCC34CCCN3CCC4)ccnc2c1 [Example 2, N-(7-chloro-quinolin-4-yl)-(tetrahydropyrrolizin-7a-yl)-methylamine]	0.0092 ± 0.0022 (≈ 0.0305 µM)	0.0087 ± 0.0035 (≈ 0.0288 µM)		
CCN(CC)CCCC(C)Nc1ccnc2cc(Cl)ccc12 (stereo not shown) [Chloroquine, chloroquine, reference compound]			0.0097 ± 0.0036 (≈ 0.0303 µM)	0.17 ± 0.0413 (≈ 0.532 µM)
Oc1cc(Nc2ccnc3cc(Cl)ccc23)ccc1CNC[C@@H]1CCCN2CCCC[C@H]12 [Example 3]	0.0103 ± 0.0019 (≈ 0.0228 µM)	0.0114 ± 0.0021 (≈ 0.0253 µM)		

Reference: patent publication US20080262031A1, “4-Aminoquinoline Derivatives as Antimalarials” (CTG PHARMA S.R.L., priority 2005, published 2008)
